From patent publication US20110020801A1, “Carboxylesterase-1 Polymorphisms and Methods of Use Therefor” (priority 2007, published 2011) come the findings set out here.

Residue numbers refer to the chain shown, from its start. Values joined by “and” are separate entries in the source; they are usually repeats but may differ in a detail not shown here. Equal values may be shown once.

For orientation: Km means the substrate concentration at which the rate is half of its maximum.

The nature of data set [1]: Spontaneous hydrolysis in reaction buffer. It counts as physicochemical. Conditions: PBS containing 10 mM HEPES, pH 7.4. How it is done:
(§1) Thus, following the enzymatic assay, the values determined for spontaneous PNP and RA hydrolysis were subtracted from the total PNP and RA production. […] All collected data were fit to the Michaelis-Menten equation, and kinetic parameters were calculated using nonlinear regression analysis with Graphpad Prism software (Graphpad Software Inc., San Diego, Calif.)

For another data set, the target named is T1, p.Asp260fs CES1 (Homo sapiens, UniProt P23141).
T1 construct: a frameshift mutation that alters residues 260-299 and causes early truncation at a premature stop codon; expressed in transfected cells
T1 sequence (P23141 with tags, fused parts or gaps): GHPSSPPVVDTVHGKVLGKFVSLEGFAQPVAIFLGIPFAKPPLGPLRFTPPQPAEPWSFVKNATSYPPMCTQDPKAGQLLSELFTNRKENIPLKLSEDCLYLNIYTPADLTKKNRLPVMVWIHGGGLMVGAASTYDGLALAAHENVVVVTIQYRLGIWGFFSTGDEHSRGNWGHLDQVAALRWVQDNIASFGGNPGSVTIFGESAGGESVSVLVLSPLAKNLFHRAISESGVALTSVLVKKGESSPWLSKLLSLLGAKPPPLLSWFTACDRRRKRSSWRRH
As to the kind of experiment: PNPA hydrolysis by S9 of cells expressing p.Asp260fs CES1. The class given is biochemical.
Text: (§2) The desired plasmid was designed such that the recombinant CES1 would be expressed in mammalian cells with a V5-His tag to facilitate detection and purification. Additionally, another plasmid was generated by inserting a stop codon after CES1A1 gene to yield the constructs expressing CES1 without V5-His tag. […] Thus, only untagged CES1 and its associated mutants were used in the enzymatic hydrolysis study. Two constructs of CES1 mutations, p.Gly143Glu and p.Asp260fs, were generated using a site-directed mutagenesis assay. All constructs were subjected to DNA sequencing analysis to confirm that the desired plasmids were obtained. The identified CES1A1 plasmids (WT, p.Gly143Glu, and p.Asp260fs) were co-transfected with pOG44 plasmid at a ratio of 1:10 into Flp-In™-293 cells using […] (Invitrogen, Carlsbad, Calif.). Additionally, the self-ligated pcDNA5/FRT/V5-His-TOPO® vector was included as a vector control. Twenty-four hours after transfection, cells were washed with PBS and fresh complete medium (Dulbecco's modified Eagle's medium containing 10% fetal bovine serum) was added. Forty-eight hours after transfection, cells were split at a 1:10 ratio and cultured at 37° C. until cell attachment was observed. Culture medium was then removed and replenished with complete medium supplemented with the selecting antibiotic hygromycin B (100 μg/ml). The cell lines stably expressing WT, p.Gly143Glu, and p.Asp260fs CES1 were obtained only after a minimum 3-week selection process employing hygromycin B. Each generated cell line was identified by both expression detection and enzymatic function assays.
(§3) After attaining approximately 95% confluence, cells were rinsed and harvested in PBS containing 10 mM HEPES (pH 7.4). The cell suspension was then sonicated and the supernatant 9000 (S9) fraction was collected by centrifugation at 9000 g for 30 min at 4° C. The protein concentration was determined using a Pierce BCA assay kit (Rockford, Ill.).
(§4) The hydrolysis of PNPA was carried out in 96-well culture plates at 37° C. in a final volume of 200 μl. The S9 of cells expressing WT and mutant CES1 were diluted in reaction buffer (PBS containing 10 mM HEPES, pH 7.4) with a final S9 concentration of 20 μg/ml and preincubated at 37° C. for 10 min. […] The formation of p-nitrophenol (PNP) from PNPA was determined by the absorbance at 405 nm following incubation at 37° C. for 10 min.
as §1

The target of the next data set is T2, WT CES1 (Homo sapiens, UniProt P23141).
T2 construct: inserting a stop codon after CES1A1 gene to yield the constructs expressing CES1 without V5-His tag; expressed in transfected cells
T2 sequence (P23141 18-567): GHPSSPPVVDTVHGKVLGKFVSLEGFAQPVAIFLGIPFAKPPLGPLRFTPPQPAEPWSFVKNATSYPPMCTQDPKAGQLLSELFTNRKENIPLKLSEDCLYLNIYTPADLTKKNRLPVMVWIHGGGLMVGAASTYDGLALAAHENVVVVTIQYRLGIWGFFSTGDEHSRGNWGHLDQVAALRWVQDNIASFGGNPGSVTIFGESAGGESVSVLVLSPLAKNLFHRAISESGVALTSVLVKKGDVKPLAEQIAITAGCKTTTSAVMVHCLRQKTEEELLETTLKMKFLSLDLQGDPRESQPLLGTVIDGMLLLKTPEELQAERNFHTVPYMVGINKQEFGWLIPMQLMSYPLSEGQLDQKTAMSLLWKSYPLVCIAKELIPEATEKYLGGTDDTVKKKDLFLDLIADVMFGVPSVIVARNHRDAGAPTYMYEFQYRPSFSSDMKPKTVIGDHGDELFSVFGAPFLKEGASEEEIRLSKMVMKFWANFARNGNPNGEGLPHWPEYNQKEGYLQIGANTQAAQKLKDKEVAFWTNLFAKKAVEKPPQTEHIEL
The data set is described as follows: PNPA hydrolysis by S9 of Flp-In-293 cells expressing WT CES1. The class given is biochemical. Conditions: S9 20 μg/ml, 37° C., 10 min, mean ± S.D. (n = 3). An excerpt: The desired plasmid was designed such that the recombinant CES1 would be expressed in mammalian cells with a V5-His tag to facilitate detection and purification. Additionally, another plasmid was generated by inserting a stop codon after CES1A1 gene to yield the constructs expressing CES1 without V5-His tag. […] Thus, only untagged CES1 and its associated mutants were used in the enzymatic hydrolysis study. Two constructs of CES1 mutations, p.Gly143Glu and p.Asp260fs, were generated using a site-directed mutagenesis assay. All constructs were subjected to DNA sequencing analysis to confirm that the desired plasmids were obtained. […]
After attaining approximately 95% confluence, cells were rinsed and harvested in PBS containing 10 mM HEPES (pH 7.4). […] The protein concentration was determined using a Pierce BCA assay kit (Rockford, Ill.).
The hydrolysis of PNPA was carried out in 96-well culture plates at 37° C. in a final volume of 200 μl. […] The formation of p-nitrophenol (PNP) from PNPA was determined by the absorbance at 405 nm following incubation at 37° C. for 10 min.
Thus, following the enzymatic assay, the values determined for spontaneous PNP and RA hydrolysis were subtracted from the total PNP and RA production. […]

In data set [2] the target is T3, p.Gly143Glu CES1 (Homo sapiens, UniProt P23141, G143E/Y526T).
T3 construct: inserting a stop codon after CES1A1 gene to yield the constructs expressing CES1 without V5-His tag; expressed in transfected cells
T3 sequence (P23141 18-567 G143E/Y526T): T2 sequence (P23141 18-567) with G126E, Y509T
The data set is described as follows: PNPA hydrolysis by S9 of cells expressing p.Gly143Glu CES1. The class given is biochemical.
Text: as §2, §3, §4, §1

Data set [3] concerns the target T4, p.Gly143Glu CES1 (Homo sapiens, UniProt P23141, G143E).
T4 construct: inserting a stop codon after CES1A1 gene to yield the constructs expressing CES1 without V5-His tag; expressed in transfected cells
T4 sequence (P23141 18-567 G143E/Y526T): T2 sequence (P23141 18-567) with G126E, Y509T
The data set is described as above. It counts as biochemical. Conditions: S9 20 μg/ml, 37° C., 10 min, mean ± S.D. (n = 3).
Text: as §2, §3, §4, §1

The mark [4] stands for this setting: S9 20 μg/ml, 37° C., 10 min, mean ± S.D. (n = 3).

In the case of `CC(=O)Oc1ccc([N+](=O)[O-])cc1` [PNPA, p-nitrophenyl acet], the “stability in reaction buffer” value in data set [1] is “spontaneously hydrolyzed”. The figures for the “Km relative to WT” value at p.Asp260fs CES1 and at p.Gly143Glu CES1 [2] were “approximately 9.5 times” and “comparable to that of WT”, respectively. Moreover, the figures for the “Vmax as percent of that of WT CES1” value at p.Asp260fs CES1 and on p.Gly143Glu CES1 [2] were 5.7% and 18.6%, respectively. Also, the results for the Michaelis-Menten constant (Km) on p.Asp260fs CES1 (setting [4]), at WT CES1 and on p.Gly143Glu CES1 [3] were 950 ± 352 µM, 107 µM and 93.2 ± 9.8 µM, respectively. Moreover, the Vmax on p.Asp260fs CES1 (setting [4]) is 28.0 ± 6.1 nmole/min/mg protein; at WT CES1 it was 493.9 nmole/min/mg protein and 493.9 ± 14.3 nmole/min/mg protein; at p.Gly143Glu CES1 [2] (setting [4]) it was 92.0 ± 2.9 nmole/min/mg protein.
